The values below come from PubChem BioAssay AID1250 (SRMLSC, 2008).

The structures appear in SMILES notation. Activity calls are given as the source filed them.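 Rule for the calls: active = inhibition of at least 30% at one or more tested concentrations; inactive = inhibition below 30% at every dose.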

System in one assay: not listed separately
In words: antiviral protection against BTV-induced cell death – arbovirus, BSR cells, confirmation (AID 1250). Conditions: BSR cells, Bluetongue virus CPE, ATP luminescence, 72 h; at 20 µM (top of the series).
For the compound `O=C(NCCN1C(=O)S/C(=C/c2cccnc2)C1=O)C1CC(=O)N(Cc2ccccc2)C1` (centres undefined), the CPE inhibition is 3.69% (inactive).

In the case of `CCN(CC)C(=O)CSC1=N/C(=C/c2ccco2)C(=O)N1c1ccc(OC)c(Cl)c1`, the CPE inhibition was 13.3% (inactive).

Turning to `Fc1ccccc1N1CCN(Cc2nc(-c3ccc(Cl)cc3Cl)no2)CC1`, the CPE inhibition is 19.9% (inactive).

`O=C(NNC(=S)NC1CCCCC1)c1ccc(Cl)s1`: the CPE inhibition is 28.3% (inactive).

On to `Cc1nc(NS(=O)(=O)c2ccccc2C)c2c3c(sc2n1)CCC3`, for which the CPE inhibition is 27.6% (inactive).

With `COc1ccccc1NC(=O)C12CC3CC(C1)CC(c1ccc(C)cc1)(C3)C2`, the CPE inhibition was 18.9% (inactive).

In the case of `CSc1nsc2nc(=O)c(/C=C3\C(C)=Nc4ccccc43)c(N)n12`, the CPE inhibition is 23% (inactive).

In the case of `O=C(Nc1ccc(OC(F)(F)F)cc1)c1[nH]ncc1[N+](=O)[O-]`, the CPE inhibition was 25.3% (inactive).

With `COC(=O)c1c(SCc2ccc(C#N)cc2)nc(=O)[nH]c1C`, the CPE inhibition is 4.66% (inactive).

As to `COc1cc(C(=O)Nc2sc(C)c(C)c2C(=O)O)cc(OC)c1OC`, the CPE inhibition was 26% (inactive).

Take `CN(C)/N=C/c1ccc(P(c2ccc(/C=N/N(C)C)o2)c2ccc(/C=N/N(C)C)o2)o1`: the CPE inhibition was 10.4% (inactive).

In the case of `Cc1ccc(CSc2nnc(NC(=O)C3COc4ccccc4O3)s2)cc1` (centres undefined), the CPE inhibition is 26.6% (inactive).

As for `CCCCOc1ccc(C(O)C(CN2CCCCC2)c2ccccc2)cc1` (centres undefined), the CPE inhibition was 12.5% (inactive).

Consider `O=C(CSc1ncn(-c2ccccc2)n1)Nc1nc2ccccc2s1`, for which the CPE inhibition is 10.5% (inactive).

On to `COCCn1c(SCC(=O)Nc2cc(Cl)ccc2OC)nc2c(c1=O)SC(C)C2` (centres undefined), for which the CPE inhibition was 17.7% (inactive).

As for `Fc1ccccc1N1CCN(c2ncnc3[nH]ncc23)CC1`, the CPE inhibition was 7.21% (inactive).

Regarding `Cc1ccc(C(=O)O)cc1-c1ccc(/C=C2/NC(=O)N(c3ccccc3)C2=O)o1`, the CPE inhibition was 19.9% (inactive).

As to `Cn1cc([N+](=O)[O-])c(C(=O)NCc2cc3cc(Cl)ccc3[nH]2)n1`, the CPE inhibition was 9.85% (inactive).

With `OCC1(CCOc2ccccc2)CCN(Cc2nc3ccc(F)cc3[nH]2)CC1`, the CPE inhibition was 7.83% (inactive).

With `c1ccc(CSc2ccc(-c3cccnc3)nn2)nc1`, the CPE inhibition was 0.68% (inactive).

For the compound `CCOC1=C/C(=C/c2c(N)n3nc(-c4ccccc4)sc3nc2=O)C=CC1=O`, the CPE inhibition is 18% (inactive).

Consider `Cc1ccc(S(=O)(=O)CCSc2cccc(C(=O)Nc3ccccc3C(=O)O)c2)cc1`, for which the CPE inhibition is 28.2% (inactive).

With `O=C(Nc1ccccc1C(=O)O)c1ccc2ccccc2n1`, the CPE inhibition is 16.2% (inactive).

With `C/C(=N\NC(=O)c1ccccc1)c1nc2ccccc2n1C`, the CPE inhibition is -15.5% (inactive).

As to `Cc1cccc2c1-c1sc(C(=O)Nc3nccs3)cc1CO2`, the CPE inhibition is 27% (inactive).

As to `O=c1[nH]n2c(=O)c3c([nH]c2c1N=Nc1cccc(Cl)c1)CCC3`, the CPE inhibition is 16.8% (inactive).

Consider `OCCNc1nc(Nc2ccccc2)nc2ccccc12`, for which the CPE inhibition was 15.3% (inactive).

As for `CCOC(=O)C(NC(=O)c1cccc(Cl)c1)(OCc1ccc(F)cc1)C(F)(F)F` (centres undefined), the CPE inhibition is -3.2% (inactive).

On to `CCCCCCCCCCCC(=O)NC(C(=O)O)C(O)c1ccccc1` (centres undefined), for which the CPE inhibition was 11.5% (inactive).

For the compound `Cc1[nH]nc2c1-c1nc3ccccc3nc1C(C)(C)C2`, the CPE inhibition is 15.7% (inactive).

Consider `COCCCNc1nc(-c2ccncc2)nc2ccccc12`, for which the CPE inhibition was 7.45% (inactive).

`O=c1oc(-c2cccs2)nc2sc3c(c12)CCCC3`: the CPE inhibition is 21.2% (inactive).

Regarding `COc1ccc2cc(-c3cc(C(=O)O)c4ccccc4n3)ccc2c1`, the CPE inhibition is 12.7% (inactive).

In the case of `Cc1nnc2sc(SCc3cccc(Cl)c3)nn2c1=O`, the CPE inhibition is 14.2% (inactive).

With `Nc1nc2ccccc2n1/N=C/c1ccc(-c2ccccc2)o1`, the CPE inhibition is 12.9% (inactive).

With `Cc1nnc(SCC(=O)N2CCc3ccccc32)s1`, the CPE inhibition is 3.29% (inactive).

Take `O=[N+]([O-])c1ccc(-c2c(O)c3ccccc3c3nc4ccccc4nc23)cc1`: the CPE inhibition is 25.8% (inactive).

For `O=C(Nc1sc2c(c1C(=O)O)CCCC2)c1cccs1`, the CPE inhibition was 25.3% (inactive).

Turning to `O=C1N=c2ccccc2=C1c1sc(Nc2ccc(O)cc2)nc1O`, the CPE inhibition was 14.8% (inactive).

A further assay relates to BSR cells, Bluetongue virus CPE, ATP luminescence, 72 h. The assay is described as above.
Details: not given
As for `O=c1oc(/C=C/c2ccccc2)nc2sc3c(c12)CCC3`, the IC50 is 8.92 µM.

With `O=C(Nc1nc(-c2ccc(Cl)cc2Cl)cs1)c1ccc(OCC2CCCO2)cc1` (centres undefined), the IC50 is 5.08 µM.

Consider `Cc1cc(C)c2cc(CN(Cc3cccnc3)C(=O)c3ccc(F)cc3)c(Cl)nc2c1`, for which the IC50 was 0.416 µM.

For the compound `CCc1nn2c(N)c(/C=C3\C=Nc4ccccc43)c(=O)nc2s1`, the IC50 was 18.3 µM.

As to `Nc1nc(-c2ccccc2)c(-c2ccc([N+](=O)[O-])cc2)s1`, the IC50 was 5.6 µM.

On to `Cc1ccc(-c2csc(NC(=O)/C=C/c3ccco3)c2C(=O)O)cc1`, for which the IC50 is 8.57 µM.

As to `Cc1nc(Nc2ccc3c(c2)OCCO3)c2nnn(Cc3ccccc3Cl)c2n1`, the IC50 is 20.8 µM.

`CCOC(=O)c1ccc(N2C(=O)C3C(/C=C/c4ccccc4)OC4(C(=O)c5ccccc5C4=O)C3C2=O)cc1` (centres undefined): the IC50 was 19.6 µM.

Consider `COC(=O)c1ccccc1NC(=O)CN1CCC(NC(=O)c2ccccc2C)CC1`, for which the half-maximal inhibitory concentration (IC50) is 1.45 µM.

As for `O=C(O)c1ccc(N2C(=O)/C(=C/c3ccc(-c4ccc([N+](=O)[O-])cc4)o3)C=C2c2ccccc2)cc1`, the concentration for half-maximal inhibition (IC50) was 5.33 µM.

Consider `Cc1csc(NC(=O)c2c(O)c3c(n(CC(C)C)c2=O)CCCC3)n1`, for which the IC50 is 4.9 µM.

Turning to `CCNc1nc(SCCOc2ccc(Cl)cc2Cl)nc(N(C)C)n1`, the IC50 was 5.92 µM.

As for `O=C(O)CSc1cc(C(=O)c2ccccc2O)cn2c(=O)c3c(-c4ccccc4)csc3nc12`, the IC50 was 14.1 µM.

For the compound `COc1ccc(C2C=C(c3ccc(C)cc3)Nc3ncnn32)cc1` (centres undefined), the IC50 is 13 µM.

On to `COc1cc(C(=O)Nc2nc(-c3ccc(F)cc3)cs2)ccc1OCC(=O)N1CCOCC1`, for which the IC50 was 10.6 µM.

Turning to `Cc1nn(-c2ccccc2)c(Cl)c1/C=N/Nc1ccc(Cl)c(C(=O)O)c1`, the IC50 is 14.5 µM.

In the case of `COc1ccc(N=C2S/C(=C\c3ccc(OCC(=O)O)cc3)C(=O)N2CCc2c[nH]c3ccccc23)cc1`, the IC50 is 15.6 µM.

For `CCOc1ccc(-c2cc3nc(C4CCN(C(=O)OC(C)(C)C)CC4)c(C(=O)O)cn3n2)cc1`, the IC50 is 19.8 µM.

For the compound `Cc1ccc(N2C(=O)/C(=C\c3ccc(C(C)C)cc3)N=C2SC2CCOC2=O)cc1` (centres undefined), the IC50 is 12.1 µM.

Take `CCOc1ccc(C(=O)Nc2cc(NC(=O)c3ccc(OCC)c(Cl)c3)cc(C(=O)O)c2)cc1Cl`: the IC50 was 20.9 µM.

Regarding `COc1ccc(NC(=O)c2cc3cccc(OC)c3oc2=Nc2ccc(C(=O)O)cc2)cc1OC`, the half-maximal inhibitory concentration (IC50) is 13.3 µM.

For the compound `CC(C)(C)c1c(Cl)c(O)c(-c2ccccc2)c(=O)n1-c1ccccc1`, the IC50 was 15.5 µM.

For the compound `CC(C)(C)n1nnnc1C(c1ccc(C(F)(F)F)cc1)N(Cc1ccc(F)cc1)Cc1ccco1` (centres undefined), the IC50 was 20.5 µM.

Take `O=C(/C=C/c1ccco1)Nc1sc2c(c1C(=O)O)CCC2`: the IC50 was 17 µM.

With `O=c1[nH]n2c(=O)c3c([nH]c2c1N=Nc1cccc(Cl)c1)CCCC3`, the IC50 is 18.5 µM.

As for `Oc1ccc(Nc2nc(NCC3CCCO3)c3ccccc3n2)cc1` (centres undefined), the IC50 is 20.8 µM.

Regarding `Cc1cccc(C)c1-n1cccc1/C=C1/C(=N)N2C(=NC1=O)SN=C2S(C)(=O)=O`, the half-inhibitory concentration (IC50) is 16.4 µM.

For the compound `CC(=O)OC[C@H]1O[C@@H](n2ncc(=O)[nH]c2=O)[C@H](OC(C)=O)[C@@H]1OC(C)=O`, the IC50 is 9.79 µM.

As to `CC1(c2ccc([N+](=O)[O-])cc2)CC(C)(C)N(C(=O)c2ccccc2)c2ccccc21` (centres undefined), the IC50 was 9.68 µM.

`CC(C)(C)c1ccc(C(=O)Nc2sc3c(c2C(=O)O)CCC3)cc1`: the IC50 was 0.165 µM.

Regarding `CC(C)c1ccc(-c2csc(NC(=O)c3cccs3)c2C(=O)O)cc1`, the IC50 was 11.1 µM.

Take `CC(NC(=O)c1cccs1)c1nnc(SCc2ccc(Cl)cc2Cl)n1C` (centres undefined): the IC50 was 9.37 µM.

On to `O=C(Nc1nc(-c2ccccc2)cs1)c1cccs1`, for which the IC50 was 10.1 µM.

On to `Cc1nc(CS(=O)c2ccc(Cl)cc2)cc(NCc2ccc(Cl)cc2Cl)n1` (centres undefined), for which the IC50 is 9.42 µM.

For `CCOc1ccc(N=Nc2c(=O)[nH]n3c(=O)c4c([nH]c23)CCCC4)cc1`, the IC50 is 16.6 µM.

For `COc1ccc(Cl)cc1NC(=O)c1cc(-c2ccccc2O)n[nH]1`, the IC50 is 14.4 µM.

For the compound `O=C(/C=C/c1cccs1)Nc1scc(-c2ccccc2)c1C(=O)O`, the IC50 is 6.24 µM.

As for `C/C(=N\NC(=O)c1ccccc1C)c1ccc(NC(=O)c2cccs2)cc1`, the IC50 was 0.524 µM.

In the case of `Oc1ccc(Br)cc1-c1cc(-c2ccc(Cl)cc2)n[nH]1`, the IC50 was 17.5 µM.

For `CCOc1cc(/C=C(/C#N)c2ccc(Cl)cc2)cc(Cl)c1OCC(=O)O`, the IC50 is 20.6 µM.

As to `COc1cc([N+](=O)[O-])ccc1NC(=O)CC1SC(=Nc2ccc(F)cc2)N(CCC2=CCCCC2)C1=O` (centres undefined), the IC50 was 0.108 µM.

Consider `Cc1ccc(-c2csc(NC(=O)c3cccs3)n2)cc1`, for which the IC50 is 5 µM.

As to `CC(=O)Nc1cccc(Oc2ncnc3scc(-c4ccccc4)c23)c1`, the IC50 is 15.6 µM.

As to `CC(C)Sc1nsc2nc(=O)c(/C=C3\C=Nc4ccccc43)c(N)n12`, the IC50 was 10.3 µM.

With `CC(C)COc1ccc(C(=O)Nc2sc3c(c2C(=O)O)CC(C)(C)OC3)cc1`, the IC50 was 13.1 µM.

As to `N#Cc1sc2nc(-c3cccs3)cc(-c3ccc(F)cc3)c2c1N`, the IC50 is 2.28 µM.

Regarding `COc1ccc(NC(=O)c2c[nH]n3c(=O)cc(C4CCN(C(=O)OC(C)(C)C)CC4)nc23)cc1Cl`, the IC50 was 12.2 µM.

Regarding `COCCCn1c(N)c(-c2nc3ccccc3n2C)c2nc3ccccc3nc21`, the IC50 is 7.62 µM.

`C(=N\Nc1nc(-c2ccccc2)cs1)/c1cccs1`: the IC50 is 15.5 µM.

In the case of `COc1cccc(C(=O)Nc2nc(-c3ccc4c(c3)OCO4)cs2)c1`, the IC50 is 9.98 µM.

A word on the IC50: it is the point on the concentration scale where inhibition reaches its midpoint.
